Test [1] relates to c-myc in Human AML MV4-11 cells. Briefly: Inhibition of c-MYC expression (mRNA, real-time PCR) in MV4-11 cells. Type of test: cell-based. As to conditions: 3 h, mRNA by real-time PCR. As for the experimental part:
MV4-11 cells (CRL-9591) were plated at a density of 2.5×10^4 cells per well in 96 well U-bottom plates and treated with increasing concentrations of test compound or DMSO (0.1%) in IMDM media containing 10% FBS and penicillin/streptomycin, and incubated for 3 h at 37° C. Triplicate wells were used for each concentration. Cells were pelleted by centrifugation and harvested using the mRNA Catcher PLUS kit according to manufacturer's instructions. The eluted mRNA isolated was then used in a one-step quantitative real-time PCR reaction, using components of the RNA UltraSense™ One-Step Kit (Life Technologies) together with Applied Biosystems TaqMan® primer-probes for cMYC and Cyclophilin. Real-time PCR plates were run on a ViiA™7 real time PCR machine (Applied Biosystems), data was analyzed, normalizing the Ct values for hMYC to an internal control, prior to determining the fold expression of each sample, relative to the control.
On the technique in general: In qPCR the cycle at which signal appears reflects the starting amount.

A further test relates to Human AML MV-4-11 cells. Description: Inhibition of cell proliferation in MV4-11 cells (CellTiter Aqueous One). Type of test: cell-based. As to conditions: 72 h. As for the experimental part: In this example, cell titer in MV4-11 cells were quantitated to measure the inhibition of proliferation when treated with a compound of the present disclosure.
MV4-11 cells (CRL-9591) were plated at a density of 5×10^4 cells per well in 96 well flat bottom plates and treated with increasing concentrations of test compound or DMSO (0.1%) in IMDM media containing 10% FBS and penicillin/streptomycin. Triplicate wells were used for each concentration and a well containing only media was used as a control. Plates were incubated at 37° C., 5% CO2 for 72 h before adding 20 μL of the CellTiter Aqueous One Solution (Promega) to each well and incubated at 37° C., 5% CO2 for an additional 3-4 h. The absorbance was read at 490 nm in a spectrophotometer and the percentage of cell titer relative to DMSO-treated cells was calculated after correcting for background by subtracting the blank well's signal. IC50 values were calculated using the Graph Pad Prism software.

Test [2] has as its target T1, Brd4 bromodomain 1 (BRD4(1)) (Homo sapiens, UniProt O60885).
T1 construct: made in house; host or cells: E. coli BL21(DE3)
Briefly: Inhibition of tetra-acetylated histone H4 binding to Brd4 bromodomain 1 (HTRF/FRET). As to conditions: tetra-acetylated histone H4 peptide, His-tagged bromodomain 200 nM, 2 h. As for the experimental part:
Proteins were cloned and overexpressed with a N-terminal 6×His tag, then purified by nickel affinity followed by size exclusion chromatography. Briefly, E. coli BL21(DE3) cells were transformed with a recombinant expression vector encoding N-terminally Nickel affinity tagged bromodomains from Brd2, Brd3, Brd4. Cell cultures were incubated at 37° C. with shaking to the appropriate density and induced overnight with IPTG. The supernatant of lysed cells was loaded onto Ni-IDA column for purification. Eluted protein was pooled, concentrated and further purified by size exclusion chromatography. Fractions representing monomeric protein were pooled, concentrated, aliquoted, and frozen at −80° C. for use in subsequent experiments.
Binding of tetra-acetylated histone H4 and BET bromodomains was confirmed by a Homogenous Time Resolved Fluorescence Resonance Energy Transfer (HTRF®) method. N-terminally His-tagged bromodomains (200 nM) and biotinylated tetra-acetylated histone H4 peptide (25-50 nM, Millipore) were incubated in the presence of Europium Cryptate-labeled streptavidin (Cisbio Cat. #610SAKLB) and XL665-labeled monoclonal anti-His antibody (Cisbio Cat. #61HISXLB) in a white 96 well microtiter plate (Greiner). For inhibition assays, serially diluted test compound was added to these reactions in a 0.2% final concentration of DMSO. Duplicate wells were used for each concentration tested. Final buffer concentrations were 30 mM HEPES pH 7.4, 30 mM NaCl, 0.3 mM CHAPS, 20 mM phosphate pH 7.0, 320 mM KF, 0.08% BSA. After a 2 h incubation at room temperature, fluorescence was measured at 665 and 620 nm with a SynergyH4 plate reader (Biotek). The binding inhibitory activity was shown by a decrease in 665 nm relative to 620 nm fluorescence. IC50 values were determined from a dose response curve.

Another test deals with hIL-6 mRNA in U937 cells. Description: Inhibition of hIL-6 mRNA transcription in LPS-stimulated U937 cells. As to conditions: Homo sapiens, U-937, PMA-differentiated U937 cells, LPS 1 ug/mL, 3 h, read-out: IL-6 activity. Type of test: cell-based. As for the experimental part: In this example, hIL-6 mRNA in tissue culture cells were quantitated to measure the transcriptional inhibition of hIL-6 when treated with a compound of the present disclosure.
Human leukemic monocyte lymphoma U937 cells (CRL-1593.2) were plated at a density of 3.2×10^4 cells per well in a 96-well plate in 100 μL RPMI-1640 containing 10% FBS and penicillin/streptomycin, and differentiated into macrophages for 3 days in 60 ng/mL PMA ([…]) at 37° C. in 5% CO2 prior to the addition of compound. The cells were pretreated for 1 h with increasing concentrations of test compound in 0.1% DMSO prior to stimulation with 1 ug/mL lipopolysaccharide from Escherichia coli. Triplicate wells were used for each concentration. The cells were incubated at 37° C., 5% CO2 for 3 h before the cells were harvested. At time of harvest, media was removed and cells were rinsed in 200 μL PBS. Cells were harvested using the mRNA Catcher PLUS kit according to manufacturer's instructions. The eluted mRNA was then used in a one-step quantitative real-time PCR reaction using components of the RNA UltraSense™ One-Step Kit (Life Technologies) together with Applied Biosystems TaqMan® primer-probes for hIL-6 and Cyclophilin. Real-time PCR plates were run on a ViiA™7 real time PCR machine (Applied Biosystems), data was analyzed, normalizing the Ct values for hIL-6 to an internal control, prior to determining the fold expression of each sample, relative to the control.

The record followed here is patent US10226451B2, “Substituted bicyclic compounds as bromodomain inhibitors” (ZENITH EPIGENETICS LTD, priority 2013, dated 2019).

Structures are written as SMILES.

On to `Cc1noc(C)c1-c1cc(-c2c(C)noc2C)c2oc(=O)[nH]c2c1` [Example Compound 3, 5,7-bis(3,5-dimethylisoxazol-4-yl)benzo[d]oxazol-2(3H)-one], for which the IC50 is 3000 to 30000 nM in test [1], 3000 to 30000 nM in the test with Human AML MV-4-11 cells, not above 300 nM in test [2] and 300 to 3000 nM in the test on hIL-6 mRNA in U937 cells.

As for `Cc1ccncc1-c1cc(-c2c(C)noc2C)cc2[nH]c(=O)n(C)c12` [Example Compound 6, 5-(3,5-dimethylisoxazol-4-yl)-1-methyl-7-(4-methylpyridin-3-yl)-1H-benzo[d]imidazol-2(3H)-one], the IC50 was not above 300 nM in test [1], 300 to 3000 nM in the test on Human AML MV-4-11 cells, not above 300 nM in test [2] and not above 300 nM in the test on hIL-6 mRNA in U937 cells.

As for `Cc1noc(C)c1-c1cc(-c2cccnc2C(F)(F)F)c2c(c1)[nH]c(=O)n2C` [Example Compound 8, 5-(3,5-dimethylisoxazol-4-yl)-1-methyl-7-(2-(trifluoromethyl)pyridin-3-yl)-1H-benzo[d]imidazol-2(3H)-one], the IC50 in test [1] is 300 to 3000 nM; with Human AML MV-4-11 cells it was 300 to 3000 nM; in test [2], not above 300 nM; in the test with hIL-6 mRNA in U937 cells, 300 to 3000 nM.

As for `COc1ccc(C)cc1-c1cc(-c2c(C)noc2C)cc2[nH]c(=O)n(C)c12` [Example Compound 12, 5-(3,5-dimethylisoxazol-4-yl)-7-(2-methoxy-5-methylphenyl)-1-methyl-1H-benzo[d]imidazol-2(3H)-one], the IC50 in the test on Human AML MV-4-11 cells was 300 to 3000 nM; in test [2], not above 300 nM; with hIL-6 mRNA in U937 cells, 300 to 3000 nM.

For the molecule `Cc1noc(C)c1-c1cc(-c2cccc(C#N)c2C)c2c(c1)[nH]c(=O)n2C` [Example Compound 14, 3-(6-(3,5-dimethylisoxazol-4-yl)-3-methyl-2-oxo-2,3-dihydro-1H-benzo[d]imidazol-4-yl)-2-methylbenzonitrile], the IC50 in test [1] was not above 300 nM; with Human AML MV-4-11 cells it was 300 to 3000 nM; in test [2], not above 300 nM.

For the molecule `Cc1noc(C)c1-c1cc(-c2c(C)noc2C)c2c(c1)n(C)c(=O)n2C` [Example Compound 15, 4,6-bis(3,5-dimethylisoxazol-4-yl)-1,3-dimethyl-1H-benzo[d]imidazol-2(3H)-one], the IC50 was 300 to 3000 nM in test [1], 300 to 3000 nM in the test on Human AML MV-4-11 cells and not above 300 nM in test [2].

On to `Cc1ccc(C#N)cc1-c1cc(-c2c(C)noc2C)cc2[nH]c(=O)n(C)c12` [Example Compound 16, 3-(6-(3,5-dimethylisoxazol-4-yl)-3-methyl-2-oxo-2,3-dihydro-1H-benzo[d]imidazol-4-yl)-4-methylbenzonitrile], for which the IC50 is not above 300 nM in test [1], 300 to 3000 nM in the test on Human AML MV-4-11 cells, not above 300 nM in test [2] and 300 to 3000 nM with hIL-6 mRNA in U937 cells.

`COc1ccncc1-c1cc(-c2c(C)noc2C)cc2[nH]c(=O)n(C)c12` [Example Compound 17, 5-(3,5-dimethylisoxazol-4-yl)-7-(4-methoxypyridin-3-yl)-1-methyl-1H-benzo[d]imidazol-2(3H)-one]: the IC50 in test [1] is not above 300 nM; in the test with Human AML MV-4-11 cells, 300 to 3000 nM; in test [2], not above 300 nM.

`Cc1ccc(Cl)cc1-c1cc(-c2c(C)noc2C)cc2[nH]c(=O)n(C)c12` [Example Compound 19, 7-(5-chloro-2-methylphenyl)-5-(3,5-dimethylisoxazol-4-yl)-1-methyl-1H-benzo[d]imidazol-2(3H)-one]: the IC50 in test [1] is not above 300 nM; in the test with Human AML MV-4-11 cells, 300 to 3000 nM; in test [2], not above 300 nM; in the test on hIL-6 mRNA in U937 cells, 300 to 3000 nM.

As to `Cc1ccncc1-c1cc(-c2c(C)noc2C)cc2[nH]c(=S)[nH]c12` [Example Compound 24, 6-(3,5-dimethylisoxazol-4-yl)-4-(4-methylpyridin-3-yl)-1H-benzo[d]imidazole-2-thiol], the IC50 in test [1] is not above 300 nM; with Human AML MV-4-11 cells, 300 to 3000 nM; in test [2], not above 300 nM.

With `Cc1ccc(C#N)cc1-c1cc(-c2c(C)noc2C)cc2[nH]c(=S)[nH]c12` [Example Compound 25, 3-(6-(3,5-dimethylisoxazol-4-yl)-2-thioxo-2,3-dihydro-1H-benzo[d]imidazol-4-yl)-4-methylbenzonitrile], the IC50 is not above 300 nM in test [1], 300 to 3000 nM with Human AML MV-4-11 cells and not above 300 nM in test [2].

`Cc1noc(C)c1-c1cc(-c2c(Cl)cncc2Cl)c2c(c1)[nH]c(=O)n2C` [Example Compound 35, 7-(3,5-dichloropyridin-4-yl)-5-(3,5-dimethylisoxazol-4-yl)-1-methyl-1H-benzo[d]imidazol-2(3H)-one]: the IC50 in test [2] was not above 300 nM; with hIL-6 mRNA in U937 cells it was 300 to 3000 nM.

Consider `Cc1noc(C)c1-c1cc(-c2cnc3ccccc3c2)c2c(c1)[nH]c(=O)n2C` [Example Compound 36, 5-(3,5-dimethylisoxazol-4-yl)-1-methyl-7-(quinolin-3-yl)-1H-benzo[d]imidazol-2(3H)-one], for which the IC50 (in test [1]; with Human AML MV-4-11 cells; in test [2]) was 300 to 3000 nM each time.

On to `Cc1noc(C)c1-c1cc(-c2ccccc2Cl)c2c(c1)[nH]c(=O)n2C` [Example Compound 37, 7-(2-chlorophenyl)-5-(3,5-dimethylisoxazol-4-yl)-1-methyl-1H-benzo[d]imidazol-2(3H)-one], for which the IC50 (in test [1]; in the test on Human AML MV-4-11 cells; in test [2]) was 300 to 3000 nM in each case.

On to `COc1ccc(F)c(-c2cc(-c3c(C)noc3C)cc3[nH]c(=O)n(C)c23)c1` [Example Compound 41, 5-(3,5-dimethylisoxazol-4-yl)-7-(2-fluoro-5-methoxyphenyl)-1-methyl-1H-benzo[d]imidazol-2(3H)-one], for which the IC50 in test [2] was not above 300 nM.

Take `COc1ccc(Cl)cc1-c1cc(-c2c(C)noc2C)cc2[nH]c(=O)n(C)c12` [Example Compound 42, 7-(5-chloro-2-methoxyphenyl)-5-(3,5-dimethylisoxazol-4-yl)-1-methyl-1H-benzo[d]imidazol-2(3H)-one]: the IC50 in test [2] was not above 300 nM.

With `COc1cccc(-c2cc(-c3c(C)noc3C)cc3[nH]c(=O)n(C)c23)c1F` [Example Compound 43, 5-(3,5-dimethylisoxazol-4-yl)-7-(2-fluoro-3-methoxyphenyl)-1-methyl-1H-benzo[d]imidazol-2(3H)-one], the IC50 in test [2] was 300 to 3000 nM.

Consider `Cc1noc(C)c1-c1cc(-c2ccc3ocnc3c2)c2c(c1)[nH]c(=O)n2C` [Example Compound 46, 7-(benzo[d]oxazol-5-yl)-5-(3,5-dimethylisoxazol-4-yl)-1-methyl-1H-benzo[d]imidazol-2(3H)-one], for which the IC50 in test [2] is not above 300 nM.
